Results reported in ChEMBL document CHEMBL1201862, “PubChem BioAssay data set” (2004).
Counter-ions that a name gives are not always drawn. Active and inactive are the calls of the source.

Columns and labels:
[1] = viability loss in HEK293T cells – cell-based, cherry-picks, cytotoxicity control for HIV Vif inhibitor project, dose response (AID 652208); type: functional
[2] = target: T1, Trace amine-associated receptor 1 (Homo sapiens, UniProt Q96RJ0); assay: Counterscreen for agonists of the human trace amine associated receptor 1 (hTAAR1): Fluorescence-based cell-based high throughput dose response assay to identify hTAAR1 agonist that also desensitize TAAR1 receptor response.; type: functional
T1 sequence (Q96RJ0 whole entry): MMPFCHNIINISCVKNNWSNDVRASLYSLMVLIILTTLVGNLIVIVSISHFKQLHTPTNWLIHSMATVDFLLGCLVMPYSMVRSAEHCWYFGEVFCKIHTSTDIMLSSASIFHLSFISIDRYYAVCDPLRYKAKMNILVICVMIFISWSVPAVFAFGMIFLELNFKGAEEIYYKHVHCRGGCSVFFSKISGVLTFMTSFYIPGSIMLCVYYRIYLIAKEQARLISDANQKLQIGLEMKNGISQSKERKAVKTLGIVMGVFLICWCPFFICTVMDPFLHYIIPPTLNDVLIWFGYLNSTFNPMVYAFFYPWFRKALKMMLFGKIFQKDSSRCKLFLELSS

[3] = target: T1, Trace amine-associated receptor 1; assay: Fluorescence-based cell-based high throughput dose response assay to identify agonists of the human trace amine associated receptor 1 (TAAR1).; type: functional
[4] = cells; type: functional, cell-based
[5] = cells; type: functional, cell-based; remark: listed apart in the source
[6] = mouse fibroblast viability loss – cell-based, cherry-pick samples, set 2, cytotoxicity control for T. cruzi growth inhibitor project, dose response (AID 651817); type: functional; settings: NIH3T3
[7] = target: T2, Replicative DNA helicase DnaB (Mycobacterium tuberculosis, UniProt P9WMR3); assay: DnaB intein splicing inhibitors, dose response, biochemical, cell-free fluorescence (AID 449749); type: functional
T2 sequence (P9WMR3 whole entry): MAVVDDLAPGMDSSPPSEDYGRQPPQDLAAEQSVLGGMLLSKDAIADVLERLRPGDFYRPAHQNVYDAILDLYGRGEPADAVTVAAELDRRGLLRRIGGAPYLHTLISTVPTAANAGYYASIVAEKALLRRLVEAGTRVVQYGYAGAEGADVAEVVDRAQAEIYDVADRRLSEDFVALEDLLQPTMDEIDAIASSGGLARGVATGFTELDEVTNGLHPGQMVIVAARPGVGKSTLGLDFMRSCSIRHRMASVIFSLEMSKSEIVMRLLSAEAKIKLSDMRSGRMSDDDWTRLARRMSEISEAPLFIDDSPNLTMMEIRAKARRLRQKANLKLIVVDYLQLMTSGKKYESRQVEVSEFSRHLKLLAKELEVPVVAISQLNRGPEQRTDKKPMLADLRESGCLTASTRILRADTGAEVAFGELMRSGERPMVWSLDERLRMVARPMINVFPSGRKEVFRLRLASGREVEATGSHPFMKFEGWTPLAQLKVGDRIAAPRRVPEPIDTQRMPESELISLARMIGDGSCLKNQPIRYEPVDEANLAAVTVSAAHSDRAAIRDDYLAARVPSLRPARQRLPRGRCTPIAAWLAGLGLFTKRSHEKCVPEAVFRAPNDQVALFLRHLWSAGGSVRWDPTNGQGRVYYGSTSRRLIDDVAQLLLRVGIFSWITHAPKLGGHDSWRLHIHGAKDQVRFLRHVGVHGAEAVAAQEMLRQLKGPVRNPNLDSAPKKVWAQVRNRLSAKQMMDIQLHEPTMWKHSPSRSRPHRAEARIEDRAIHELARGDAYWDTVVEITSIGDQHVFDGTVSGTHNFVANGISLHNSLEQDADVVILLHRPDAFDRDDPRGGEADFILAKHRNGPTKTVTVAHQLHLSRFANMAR

[8] = target: T3, Protein RecA (Mycobacterium tuberculosis, UniProt P9WHJ3); assay: Fluorescence Cell-Free Homogeneous Dose Retest to Identify Inhibitors of RecA-Intein Splicing Activity. [Related pubchem assays (depositor defined):AID2097, AID2223, AID489010, AID492950]; type: functional
T3 sequence (P9WHJ3 whole entry): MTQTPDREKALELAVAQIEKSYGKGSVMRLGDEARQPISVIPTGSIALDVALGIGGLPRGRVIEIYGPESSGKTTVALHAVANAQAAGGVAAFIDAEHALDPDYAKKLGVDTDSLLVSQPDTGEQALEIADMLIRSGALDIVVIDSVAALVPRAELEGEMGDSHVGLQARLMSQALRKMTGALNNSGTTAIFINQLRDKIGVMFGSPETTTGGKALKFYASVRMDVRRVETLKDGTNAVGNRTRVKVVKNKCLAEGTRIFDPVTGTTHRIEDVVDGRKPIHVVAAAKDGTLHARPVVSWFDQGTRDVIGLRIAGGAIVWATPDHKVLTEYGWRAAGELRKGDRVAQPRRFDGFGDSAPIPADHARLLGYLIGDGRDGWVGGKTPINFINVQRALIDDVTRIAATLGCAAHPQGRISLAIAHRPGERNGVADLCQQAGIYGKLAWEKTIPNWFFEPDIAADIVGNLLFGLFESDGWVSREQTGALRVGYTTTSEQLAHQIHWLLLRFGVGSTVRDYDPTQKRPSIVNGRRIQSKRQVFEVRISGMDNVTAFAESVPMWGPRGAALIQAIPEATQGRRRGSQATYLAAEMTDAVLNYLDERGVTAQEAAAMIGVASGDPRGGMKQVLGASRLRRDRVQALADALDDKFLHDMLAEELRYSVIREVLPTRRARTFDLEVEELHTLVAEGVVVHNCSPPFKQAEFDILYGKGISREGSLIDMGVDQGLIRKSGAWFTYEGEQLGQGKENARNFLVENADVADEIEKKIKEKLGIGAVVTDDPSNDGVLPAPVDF

[9] = target: T4, Sentrin-specific protease 8 (Homo sapiens, UniProt Q96LD8); type: functional
T4 sequence (Q96LD8 whole entry): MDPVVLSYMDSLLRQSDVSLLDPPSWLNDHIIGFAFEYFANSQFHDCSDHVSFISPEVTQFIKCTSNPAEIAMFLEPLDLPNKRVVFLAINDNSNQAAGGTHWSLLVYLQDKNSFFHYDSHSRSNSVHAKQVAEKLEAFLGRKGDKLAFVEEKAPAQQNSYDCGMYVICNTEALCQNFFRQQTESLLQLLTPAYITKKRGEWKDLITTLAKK

[10] = target: T4, Sentrin-specific protease 8; type: functional; remark: listed apart in the source
[11] = target: T5, Beta Lactamase (Pseudomonas aeruginosa, UniProt Q932Y6); assay: concentration-dependent VIM-2 enzyme inhibition – biochemical, epi-absorbance readout, selective inhibitors, dose response (AID 1919)
T5 sequence (Q932Y6 whole entry): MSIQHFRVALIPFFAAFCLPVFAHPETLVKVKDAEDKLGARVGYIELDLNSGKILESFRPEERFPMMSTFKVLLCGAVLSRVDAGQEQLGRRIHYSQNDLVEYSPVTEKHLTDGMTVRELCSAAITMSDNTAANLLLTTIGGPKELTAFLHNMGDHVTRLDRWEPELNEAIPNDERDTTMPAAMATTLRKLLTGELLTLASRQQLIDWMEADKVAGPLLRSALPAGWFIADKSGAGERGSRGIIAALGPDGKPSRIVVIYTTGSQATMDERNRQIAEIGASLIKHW

[12] = target: Beta-lactamase (Salmonella choleraesuis (strain SC-B67), UniProt Q5J463); assay: Epi-absorbance-based counterscreen for selective VIM-2 inhibitors: dose response biochemical high throughput screening assay to identify inhibitors of TEM-1 serine-beta-lactamase.
Chain of Beta-lactamase (Salmonella choleraesuis (strain SC-B67), UniProt Q5J463) (Q5J463 whole entry): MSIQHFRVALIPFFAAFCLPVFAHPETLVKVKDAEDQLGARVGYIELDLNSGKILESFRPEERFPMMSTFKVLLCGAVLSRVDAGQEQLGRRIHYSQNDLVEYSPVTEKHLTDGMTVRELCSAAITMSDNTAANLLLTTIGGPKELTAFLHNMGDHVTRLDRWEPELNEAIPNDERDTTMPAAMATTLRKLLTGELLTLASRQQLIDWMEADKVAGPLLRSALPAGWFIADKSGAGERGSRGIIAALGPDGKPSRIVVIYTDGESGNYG

[13] = target: T6, Beta-lactamase (Pseudomonas aeruginosa, UniProt Q79MP6); assay: inhibition of IMP-1 beta-lactamase activity – biochemical, epi-absorbance, selectivity assay for VIM-2 inhibitor project, dose response (AID 1920)
T6 sequence (Q79MP6 whole entry): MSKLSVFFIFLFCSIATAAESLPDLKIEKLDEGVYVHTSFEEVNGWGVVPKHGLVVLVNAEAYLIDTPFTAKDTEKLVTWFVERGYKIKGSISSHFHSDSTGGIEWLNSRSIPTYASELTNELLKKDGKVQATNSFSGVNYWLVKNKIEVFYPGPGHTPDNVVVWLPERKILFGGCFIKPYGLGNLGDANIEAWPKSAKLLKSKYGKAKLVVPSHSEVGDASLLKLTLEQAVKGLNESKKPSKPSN

[14] = target: T6, Beta-lactamase; assay: […] counterscreen for selective VIM-2 inhibitors: dose response biochemical high throughput screening assay to identify inhibitors of IMP-1 metallo-beta-lactamase.
[15] = target: T5, Beta Lactamase; assay: VIM-2 CCF2 hydrolysis inhibition, assay artifact filter – biochemical, FRET readout, CCF2 substrate, artefact control for selective VIM-2 inhibitor project, dose response (AID 1926)
[16] = target: Mu-type opioid receptor (Homo sapiens, UniProt P35372); type: functional, cell-based;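 note: U2OS cells with beta-arrestin recruitment to OPRM1 by beta-gal complementation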
Chain of Mu-type opioid receptor (P35372 whole entry): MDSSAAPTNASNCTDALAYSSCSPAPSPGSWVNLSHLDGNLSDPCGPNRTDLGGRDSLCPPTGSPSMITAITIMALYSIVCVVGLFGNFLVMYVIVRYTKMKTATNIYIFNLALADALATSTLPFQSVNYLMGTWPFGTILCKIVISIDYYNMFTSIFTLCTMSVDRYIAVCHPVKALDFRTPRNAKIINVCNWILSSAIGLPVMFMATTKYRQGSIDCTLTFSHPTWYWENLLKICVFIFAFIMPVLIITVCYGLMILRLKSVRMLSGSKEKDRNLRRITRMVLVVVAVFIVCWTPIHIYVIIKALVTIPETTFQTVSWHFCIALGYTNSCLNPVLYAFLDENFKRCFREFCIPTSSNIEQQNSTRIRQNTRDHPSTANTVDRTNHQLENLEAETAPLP

[17] = target: 5-hydroxytryptamine receptor 2A (Mus musculus, UniProt P35363); type: functional, cell-based;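 note: CHO-K1 cells with tagged receptor and beta-arrestin; agonist potency measured as compound-induced activation of the receptor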
Chain of 5-hydroxytryptamine receptor 2A (P35363 whole entry): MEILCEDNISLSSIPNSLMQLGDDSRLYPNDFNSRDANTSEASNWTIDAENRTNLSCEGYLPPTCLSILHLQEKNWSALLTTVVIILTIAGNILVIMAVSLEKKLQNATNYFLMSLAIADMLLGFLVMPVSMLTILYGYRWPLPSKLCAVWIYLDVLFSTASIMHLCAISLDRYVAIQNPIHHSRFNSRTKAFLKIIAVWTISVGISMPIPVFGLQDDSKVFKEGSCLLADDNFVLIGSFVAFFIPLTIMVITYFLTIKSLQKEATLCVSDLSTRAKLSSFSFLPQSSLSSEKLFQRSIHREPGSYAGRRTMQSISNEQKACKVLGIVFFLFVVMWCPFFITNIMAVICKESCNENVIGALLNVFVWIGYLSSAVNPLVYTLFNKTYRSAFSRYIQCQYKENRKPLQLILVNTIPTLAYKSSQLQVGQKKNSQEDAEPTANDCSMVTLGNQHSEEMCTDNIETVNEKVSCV

For `Cc1ccc(/C=C2/CNC/C(=C/c3ccc(C)cc3)C2=O)cc1`, the AC50 [1] was 10.3 µM (active).
In the case of `O=C(CCCCl)N1CCc2[nH]c3ccccc3c2C1`, the IC50 [2] is reported as 2.05 µM (active), the EC50 [3] is reported as 0.492 µM (active) and the EC50 [4] is reported as > 29.9 µM (inactive). For the same compound, the IC50 [5] was > 29.9 µM (inactive).
In the case of `C[C@H](CO)N1C[C@H](C)[C@H](CN(C)Cc2ccc(Cl)c(Cl)c2)Oc2c(NC(=O)Nc3ccc(C(F)(F)F)cc3)cccc2C1=O`, the AC50 [6] is reported as 12.9 µM (active).
In the case of `Cc1cc(=O)n(-c2ccc(O)cc2)[nH]1`, the AC50 [7] is reported as 2.3 µM (active), the EC50 [8] is reported as 0.774 µM (active) and the IC50 [9] is reported as 19.1 µM (active). For the same compound, the IC50 [10] was 17.2 µM (active).
For `O=C(O)COc1ccccc1/C=N/n1c(S)nnc1C1CCCCC1`, the IC50 [11] was 23.1 µM (inactive), the IC50 [12] was > 59.6 µM (inactive) and the IC50 [13] was > 59.6 µM (inactive). The IC50 [14] was > 59.6 µM (inactive) and the IC50 [15] was 8.62 µM (active).
In the case of `CCCN1CCC[C@@H](c2cccc(O)c2)C1` [PRECLAMOL HYDROCHLORIDE], the EC50 [16] is reported as 92.4 µM (inactive) and the EC50 [17] is reported as 76 µM (inactive).
